The results in this text go back to patent publication US8575148B2, “Spiro azepane-oxazolidinones as Kv1.3 potassium channel blockers” (Abbott Healthcare Products B.V., priority 2008, dated 2013).

Molecules are shown by their SMILES.

This test concerns the target T1, voltage gated potassium channel Kv1.3 (Homo sapiens, UniProt P22001).
T1 construct: expressed in transfected cells; host or cells: CHO cells
The experiment in a line: In vitro inhibition of Kv1.3 potassium channels (Rb efflux, atomic absorption). It is filed as cell-based. To be noted: CHO cells over-expressing Kv1.3, Rb efflux after depolarization, triplicate; for inhibition at 10 µM: 10^−5 M, read-out: percentage Kv1.3 inhibition at 10^−5M. An excerpt:
In vitro inhibition of Kv1.3 potassium channels: the assay was used to determine the permeability of potassium ion channels expressed in the cell membrane. […] Adherent CHO cells over-expressing the voltage gated potassium channel Kv1.3 were loaded with Rb. Depolarization of the cells leads to opening of the potassium channels and to efflux of Rb through the potassium channels. Thus, the Rb concentration in the supernatant is proportional to the potassium ion channel permeability. To identify potassium channel blockers, cells were incubated with compounds before depolarization. A reduction of Rb in the supernatant indicated the presence of a potassium ion channel blocker. The Rb concentration in the supernatant was measured using an Atomic Absorption Spectrometer.
CHO cells expressing either Kv1.3, Kv1.5 or hERG ion channels were cultured at 37° C./5% CO2. Prior to the experiment cells were seeded in 96 well plates (Corning, N.Y., USA) and cultured for 24 h. Medium was discarded and replaced by 100 μl Rb buffer (10 mM HEPES pH 7.4, 5 mM Glucose, 5 mM RbCl, 140 mM NaCl, 2 mM CaCl2, 1 mM MgSO4) per well. After 4 h incubation the cells were washed three times with low potassium buffer (10 mM HEPES pH 7.4, 5 mM Glucose, 5 mM KCl, 140 mM NaCl, 2 mM CaCl2, 1 mM MgSO4). Compounds were dissolved in 75 μl low potassium buffer and added to the cells. After 12 minutes cells were depolarized by adding […] high potassium buffer (10 mM HEPES pH 7.4, 5 mM Glucose, 145 mM KCl, 2 mM CaCl2, 1 mM MgSO4), followed by additional 15 minutes of incubation. The supernatant was transferred in a 96 well plate and the Rb concentration was measured using a ZEEnit Atomic Absorption Spectrometer (Analytik Jena, Germany). By comparing control vs. depolarized w/o compound, the ion channel inhibition was determined. Measurements were done in triplicate.

T1 sequence (P22001 whole entry): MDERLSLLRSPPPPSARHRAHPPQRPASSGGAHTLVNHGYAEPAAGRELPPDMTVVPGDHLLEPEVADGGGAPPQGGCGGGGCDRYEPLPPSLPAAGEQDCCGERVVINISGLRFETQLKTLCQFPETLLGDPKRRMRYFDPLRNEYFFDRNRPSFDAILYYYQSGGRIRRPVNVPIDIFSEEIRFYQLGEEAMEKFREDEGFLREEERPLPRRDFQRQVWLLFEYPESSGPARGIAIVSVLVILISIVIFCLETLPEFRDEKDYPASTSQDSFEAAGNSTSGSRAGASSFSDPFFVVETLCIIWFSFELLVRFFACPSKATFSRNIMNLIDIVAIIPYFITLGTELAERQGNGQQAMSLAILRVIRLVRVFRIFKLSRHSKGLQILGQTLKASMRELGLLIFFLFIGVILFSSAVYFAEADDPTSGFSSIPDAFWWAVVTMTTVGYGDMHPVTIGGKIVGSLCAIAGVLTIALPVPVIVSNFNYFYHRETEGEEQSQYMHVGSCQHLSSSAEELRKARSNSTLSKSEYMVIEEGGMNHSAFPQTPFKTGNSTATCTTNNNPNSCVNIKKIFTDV

In general, inhibition refers to the percentage by which the read-out fell short of the control. Take `C[C@@H](c1ccccc1)N1C[C@@]2(CCCN(C(=O)c3cc(C(F)(F)F)cc(C(F)(F)F)c3)CC2)OC1=O` [Compound 29, (5S)-8-[3,5-bis(trifluoromethyl)benzoyl]-3-[(1S)-1-phenylethyl]-1-oxa-3,8-diazaspiro[4.6]-undecan-2-one]: the inhibition at 10 µM was found to be 100%.
The same measure, in the same setting: then `C[C@@H](c1ccccc1)N1C[C@]2(CCCN(C(=O)c3cc(C(F)(F)F)cc(C(F)(F)F)c3)CC2)OC1=O` [Compound 30, (5R)-8-[3,5-bis(trifluoromethyl)benzoyl]-3-[(1S)-1-phenylethyl]-1-oxa-3,8-diazaspiro[4.6]-undecan-2-one], with 75%.
Turning to `C[C@H](c1ccccc1)N1CC2(CCCN(C(=O)c3cc(C(F)(F)F)cc(C(F)(F)F)c3)CC2)OC1=O` (stereo partly drawn) [Compound 31, 8-(3,5-trifluoromethyl-benzoyl)-3-[(R)-1-phenyl-ethyl]-1-oxa-3,8-diazaspiro[4.6]undecan-2-one], the “percentage Kv1.3 inhibition at 10^−5M” value came out at 64%.
Consider `C[C@H](c1ccccc1)N1C[C@@]2(CCCN(C(=O)c3cc(C(F)(F)F)cc(C(F)(F)F)c3)CC2)OC1=O` [Compound 32, (5S)-8-[3,5-bis(trifluoromethyl)benzoyl]-3-[(1R)-1-phenylethyl]-1-oxa-3,8-diazaspiro[4.6]-undecan-2-one], for which the inhibition at 10 µM is 99%.
